The nature of data set [1]: Drug metabolism in human hepatocytes assessed as acyl glucoronidation at 10 […] after 30 to 120 mins by LC-MS analysis. Type of data set: ADME, cell-based, Hepatocyte.
Data set [2] in a line: AUC in CD-1 mouse at 3 mg/kg, iv. It is filed as ADME, organism-based. Particulars: in vivo.
Data set [3] can be described thus: Clearance in CD-1 mouse at 3 mg/kg, iv. It is filed as ADME, organism-based. Particulars: in vivo.
Data set [4] in a line: Drug metabolism in rat hepatocytes assessed as acyl glucoronidation at 10 […] after 30 to 120 mins by LC-MS analysis. It is filed as ADME, cell-based, Hepatocyte.
The nature of data set [5]: Half life in CD-1 mouse at 3 mg/kg, iv. It is filed as ADME, organism-based. Particulars: in vivo.
Data set [6] can be described thus: Drug metabolism in rat hepatocytes assessed as hydrolysis.
Data set [7] can be described thus: Drug metabolism in rat liver microsomes assessed as N-dealkylation. It is filed as ADME, microsome.
The nature of data set [8]: Drug metabolism in rat hepatocytes assessed as oxidation.
A short description of data set [9]: Cmax in CD-1 mouse at 10 mg/kg, po. Type of data set: ADME, organism-based. Also on record: dose 10 mg/kg, route oral. Particulars: in vivo.
Data set [10] can be described thus: AUC in Wistar rat at 10 mg/kg, po. Type of data set: ADME, organism-based. Particulars: in vivo.
Data set [11] in a line: Oral bioavailability in Wistar rat at 10 mg/kg. It is filed as ADME, organism-based. As to conditions: in vivo.
A short description of data set [12]: Clearance in CD-1 mouse at 1 mg/kg, iv. Type of data set: ADME, organism-based. As to conditions: in vivo.
The nature of data set [13]: Volume of distribution at steady state in CD-1 mouse at 1 mg/kg, iv. Type of data set: ADME, organism-based. As to conditions: in vivo, read-out: Vdss.
The nature of data set [14]: Clearance in Wistar rat at 3 mg/kg, iv. Type of data set: ADME, organism-based. Particulars: in vivo.
Data set [15] is described as follows: Half life in CD-1 mouse at 10 mg/kg, po. Type of data set: ADME, organism-based. As to conditions: in vivo.
Data set [16] is described as follows: AUC in cynomolgus monkey at 3 mg/kg, iv. Particulars: in vivo. It is filed as ADME, organism-based, Macaca fascicularis.
Data set [17] can be described thus: Clearance in cynomolgus monkey at 3 mg/kg, iv. Type of data set: ADME, organism-based, Macaca fascicularis. Particulars: in vivo.
Data set [18] can be described thus: Oral bioavailability in CD-1 mouse at 10 mg/kg. Type of data set: ADME, organism-based. Particulars: in vivo.
Data set [19] is described as follows: AUC in Wistar rat at 3 mg/kg, iv. It is filed as ADME, organism-based. Particulars: in vivo.
A short description of data set [20]: AUC in CD-1 mouse at 1 mg/kg, iv. It is filed as ADME, organism-based. Particulars: in vivo.
The nature of data set [21]: Cmax in Wistar rat at 10 mg/kg, po. It is filed as ADME, organism-based. Details: dose 10 mg/kg, route oral. Particulars: in vivo.
Data set [22] can be described thus: Volume of distribution at steady state in cynomolgus monkey at 3 mg/kg, iv. Type of data set: ADME, organism-based, Macaca fascicularis. As to conditions: in vivo, read-out: Vdss.
Data set [23] can be described thus: Thermodynamic solubility of the compound. As to conditions: read-out: Therm_solubility. It is filed as physicochemical.
The nature of data set [24]: Oral bioavailability in cynomolgus monkey at 10 mg/kg. Type of data set: ADME, organism-based, Macaca fascicularis. As to conditions: in vivo.
Data set [25] can be described thus: Volume of distribution at steady state in Wistar rat at 3 mg/kg, iv. It is filed as ADME, organism-based. As to conditions: in vivo, read-out: Vdss.
The nature of data set [26]: Half life in CD-1 mouse at 1 mg/kg, iv. As to conditions: in vivo. Type of data set: ADME, organism-based.
Data set [27] can be described thus: Half life in cynomolgus monkey at 10 mg/kg, po. Type of data set: ADME, organism-based, Macaca fascicularis. As to conditions: in vivo.
Data set [28] can be described thus: Cmax in cynomolgus monkey at 10 mg/kg, po. Type of data set: ADME, organism-based, Macaca fascicularis. Also on record: dose 10 mg/kg, route oral. Particulars: in vivo.
A short description of data set [29]: Half life in cynomolgus monkey at 3 mg/kg, iv. Type of data set: ADME, organism-based, Macaca fascicularis. Particulars: in vivo.
Data set [30] is described as follows: AUC in CD-1 mouse at 10 mg/kg, po. It is filed as ADME, organism-based. As to conditions: in vivo.
A short description of data set [31]: Half life in Wistar rat at 3 mg/kg, iv. Type of data set: ADME, organism-based. As to conditions: in vivo.
Data set [32] in a line: Half life in Wistar rat at 10 mg/kg, po. As to conditions: in vivo. Type of data set: ADME, organism-based.
Data set [33] in a line: AUC in cynomolgus monkey at 10 mg/kg, po. It is filed as ADME, organism-based, Macaca fascicularis. Particulars: in vivo.

This note sets out measurements from ChEMBL document CHEMBL4177669 (Bioorg Med Chem Lett, 2017).

In brackets after ≈: the same amount, converted by molar mass.

For the molecule `C/C(=C\C(=O)O)CCCOc1ccccc1CN(C)C(=O)c1ccc(-c2ccco2)cc1`, the Drug metabolism entry in data set [1] and in [4] was “Metabolite_Detected” in each case. For the same molecule, the AUC in data set [2] turned out to be 4700 ng·h/mL. This molecule also yielded a clearance in [3] of 11 mL/min/kg. In data set [5], this molecule gave a half-life of 1.6 h.

In the case of `C[C@@H](CCCOc1ccccc1CN(C)C(=O)c1ccc(-c2ccco2)cc1)CC(=O)O`, the Drug metabolism result in [1] and in [4] was “Metabolite_Detected” throughout. For the same molecule, the AUC in data set [2] stood at 30800 ng·h/mL. This molecule showed a clearance in data set [3] of 1.3 mL/min/kg. In addition, the half-life in data set [5] was 2 h.

As for `CC(CCOc1ccccc1CN(C)C(=O)c1ccc(-c2ccco2)cc1)CCC(=O)O` (stereo not drawn), the Drug metabolism result in [1] and in [4] was “Metabolite_Detected” each time. Also, the AUC in data set [2] stood at 11800 ng·h/mL. In data set [3], the clearance worked out at 4 mL/min/kg. In [5], the half-life is 1.7 h.

Turning to `CN(Cc1ccccc1OCCC/C=C/C(=O)O)C(=O)c1ccc(-c2ccco2)cc1`, the Drug metabolism entry in [1] and in data set [4] was “Metabolite_Detected” throughout. Also, the exposure (AUC) in [2] was found to be 750 ng·h/mL. The molecule also registered a clearance in data set [3] of 67 mL/min/kg. In data set [5], the half-life is 1.9 h.

As for `CN(Cc1ccccc1OCCC[C@@H]1C[C@@H]1C(=O)O)C(=O)c1ccc(-c2ccco2)cc1` (racemic), the Drug metabolism result in data set [1] and in [4] was “Metabolite_Detected” throughout. Moreover, in [2], the AUC was found to be 30100 ng·h/mL. Further, the clearance in data set [3] is 1.7 mL/min/kg. In addition, in [5], the half-life is 2.7 h.

As for `CN(Cc1ccccc1OCCC[C@@H]1C[C@H]1C(=O)O)C(=O)c1ccc(-c2ccco2)cc1` (racemic), the Drug metabolism entry in [1] and in data set [4] was “Metabolite_Detected” throughout. The molecule also had an area under the curve (AUC) in data set [2] of 40500 ng·h/mL. The same molecule displayed a clearance in [3] of 0.6 mL/min/kg. In data set [5], this molecule had a half-life of 3.5 h.

For `C/C(=C\CCCOc1ccccc1CN(C)C(=O)c1ccc(-c2ccco2)cc1)C(=O)O`, the Drug metabolism result in data set [1] and in [4] was “Metabolite_Detected” each time. This molecule yielded an AUC in [2] of 1300 ng·h/mL. Also, the clearance in data set [3] came out at 4 mL/min/kg. Besides, the half-life in data set [5] is 1.2 h.

Turning to `O=C(O)CCCCCOc1ccccc1CN(C(=O)c1ccc(-c2ccco2)cc1)C1CC1`, the Drug metabolism entry in data set [6], in data set [7] and in [8] was “Metabolite_Detected” throughout.

Consider `CN(Cc1ccccc1OCCCCC(C)(C)C(=O)O)C(=O)c1ccc(-c2ccco2)cc1`, for which the Drug metabolism result in data set [1] and in [4] was “Metabolite_Detected” in each case. Besides, in [2], the AUC came out at 48400 ng·h/mL. In data set [3], this molecule had a clearance of 1.3 mL/min/kg. Further, the half-life in data set [5] is 4.6 h.

For the molecule `CN(Cc1ccccc1OCCCCCC(=O)O)C(=O)c1ccc(-c2ccco2)cc1`, the Drug metabolism entry in [1] and in data set [4] was “Metabolite_Detected” throughout. In data set [2], this molecule came in with an AUC of 1100 ng·h/mL. Moreover, the clearance in data set [3] was determined as 44 mL/min/kg. The half-life in data set [5] is 1.7 h.

Consider `C/C(=C\COc1ccccc1CN(C)C(=O)c1ccc(-c2ccco2)cc1)CCC(=O)O`, for which the Cmax in data set [9] turned out to be 11100 ng/mL; in [21], 3800 ng/mL; in [28], 4190 ng/mL. In addition, the AUC in [10] was 12500 ng·h/mL; in [2] it was 3300 ng·h/mL; in [16] it was 6200 ng·h/mL; in data set [19], 4650 ng·h/mL; in [20] it was 1980 ng·h/mL; in [30], 16600 ng·h/mL. Further, the AUC in [33] came out at 6050 ng·h/mL. Moreover, the bioavailability is 82% in data set [11], 84% in data set [18] and 29% in data set [24]. In addition, the clearance in [12] was 8.4 mL/min/kg; in data set [14], 7.2 mL/min/kg; in data set [3], 15 mL/min/kg; in data set [17] it was 8 mL/min/kg. Moreover, the values for the Vd in [13], in data set [22] and in data set [25] were 2.6 L/kg, 1.3 L/kg and 0.9 L/kg, respectively. In addition, the half-life in data set [15] was 4.3 h; in [26], 5.8 h; in data set [27], 1.1 h; in data set [5], 2.3 h; in [29] it was 1.8 h; in [31], 4.5 h. The molecule also had a half-life in data set [32] of 2.5 h. In addition, the Drug metabolism result in data set [1] and in data set [4] was “Metabolite_Detected” throughout. In data set [23], the solubility thermodynamic stood at 190 µM (≈ 82.4 µg/mL).

As to `C[C@H](CCCOc1ccccc1CN(C)C(=O)c1ccc(-c2ccco2)cc1)CC(=O)O`, the Drug metabolism entry in [1] and in [4] was “Metabolite_Detected” in each case. The same molecule registered an AUC in [2] of 77700 ng·h/mL. The same molecule displayed a clearance in data set [3] of 0.3 mL/min/kg. Also, the half-life in data set [5] is 3.9 h.

Take `CC(CCCCOc1ccccc1CN(C)C(=O)c1ccc(-c2ccco2)cc1)C(=O)O` (stereo not drawn): the Drug metabolism entry in [1] and in data set [4] was “Metabolite_Detected” each time. Also, in data set [2], the AUC is 11400 ng·h/mL. The same molecule registered a clearance in data set [3] of 3 mL/min/kg. In [5], this molecule gave a half-life of 2.8 h.

Usually AUC stands for the area under the concentration-time curve, a measure of exposure. The clearance is the volume of plasma or blood freed of the substance per unit of time. For orientation: half-life means the time in which the quantity being followed falls by half. What is called Cmax is the maximum level reached in the sampled fluid or tissue. As usually defined, the bioavailability is dose-corrected exposure relative to a reference, in per cent.
